From ChEMBL document CHEMBL1201862, “PubChem BioAssay data set” (2004)
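Following 48 hours of exposure in 96-well plates, responses at five concentrations were used to interpolate endpoints linearly. Abbreviation: GI50, concentration required for 50% inhibition of growth.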 Active and inactive are the calls of the source. Rule as the data show it: active = GI50 up to about 1.1 µM and inactive = higher.

Tests used:
Test in all cases: NCI tumour cell line growth inhibition, 48 h
[1] = test system: 786-0
[2] = test system: A498
[3] = test system: A549
[4] = test system: ACHN
[5] = test system: CAKI-1
[6] = test system: CCRF-CEM
[7] = test system: COLO 205
[8] = test system: DLD-1
[9] = test system: DMS-114
[10] = test system: DMS-273
[11] = test system: EKVX
[12] = test system: HCC 2998
[13] = test system: HCT-116
[14] = test system: HCT-15
[15] = test system: HL-60
[16] = test system: HOP-18
[17] = test system: HOP-62
[18] = test system: HOP-92
[19] = test system: HT-29
[20] = test system: IGROV-1
[21] = test system: K562
[22] = test system: KM-20L2
[23] = test system: KM12
[24] = test system: LOX IMVI
[25] = test system: LXFL 529
[26] = test system: M14
[27] = test system: MOLT-4
[28] = test system: Malme-3M
[29] = test system: NCI-H226
[30] = test system: NCI-H23
[31] = test system: NCI-H460
[32] = test system: NCI-H522
[33] = test system: OVCAR-3
[34] = test system: OVCAR-4
[35] = test system: OVCAR-5
[36] = test system: OVCAR-8
[37] = test system: RPMI-8226
[38] = test system: RXF 393
[39] = test system: SF-268
[40] = test system: SF-295
[41] = test system: SF-539
[42] = test system: SK-MEL-28
[43] = test system: SK-MEL-2
[44] = test system: SK-MEL-5
[45] = test system: SK-OV-3
[46] = test system: SN12C
[47] = test system: SNB-19
[48] = test system: SNB-75
[49] = test system: SNB-78
[50] = test system: SR
[51] = test system: SW-620
[52] = test system: TK-10
[53] = test system: U-251
[54] = test system: UACC-257
[55] = test system: UACC-62
[56] = test system: UO-31
[57] = test system: XF498
[58] = test system: M19-MEL
[59] = test system: MCF7
[60] = test system: NCI/ADR-RES

SMILES: COc1ccc(NC(=O)c2cc(OC)cc(OC)c2)cc1
- GI50 [1]: > 85.7 µM (inactive)
- GI50 [2]: 35.4 µM (inactive)
- GI50 [3]: 12.1 µM (inactive)
- GI50 [4]: 57.4 µM (inactive)
- GI50 [5]: 21.9 µM (inactive)
- GI50 [6]: 27.9 µM (inactive)
- GI50 [7]: 7.1 µM (inactive)
- GI50 [8]: 17.1 µM (inactive)
- GI50 [9]: 7.29 µM (inactive)
- GI50 [10]: 9.02 µM (inactive)
- GI50 [11]: 24.2 µM (inactive)
- GI50 [12]: 23 µM (inactive)
- GI50 [13]: 8.41 µM (inactive)
- GI50 [14]: 6.93 µM
- GI50 [15]: 6.98 µM (inactive)
- GI50 [16]: > 46.7 µM (inactive)
- GI50 [17]: > 36.5 µM (inactive)
- GI50 [18]: > 100 µM (inactive)
- GI50 [19]: 4.49 µM (inactive)
- GI50 [20]: 28 µM (inactive)
- GI50 [21]: 4.74 µM (inactive)
- GI50 [22]: 4.81 µM (inactive)
- GI50 [23]: 4.49 µM (inactive)
- GI50 [24]: 17.6 µM (inactive)
- GI50 [25]: 40.5 µM (inactive)
- GI50 [26]: 47.3 µM (inactive)
- GI50 [27]: 14.8 µM (inactive)
- GI50 [28]: 36.6 µM (inactive)
- GI50 [29]: 31.7 µM (inactive)
- GI50 [30]: 41.1 µM (inactive)
- GI50 [31]: 9.89 µM (inactive)
- GI50 [32]: 13.6 µM (inactive)
- GI50 [33]: 12.1 µM (inactive)
- GI50 [34]: > 100 µM (inactive)
- GI50 [35]: > 59.8 µM (inactive)
- GI50 [36]: 80.5 µM (inactive)
- GI50 [37]: 18 µM (inactive)
- GI50 [38]: 17.8 µM (inactive)
- GI50 [39]: 36.7 µM (inactive)
- GI50 [40]: 17.8 µM (inactive)
- GI50 [41]: 25.1 µM (inactive)
- GI50 [42]: 45.7 µM (inactive)
- GI50 [43]: 25.9 µM (inactive)
- GI50 [44]: 9.38 µM (inactive)
- GI50 [45]: 31.4 µM (inactive)
- GI50 [46]: 67 µM (inactive)
- GI50 [47]: > 60.8 µM (inactive)
- GI50 [48]: 27.9 µM (inactive)
- GI50 [49]: 26 µM (inactive)
- GI50 [50]: 11.6 µM (inactive)
- GI50 [51]: 7.01 µM (inactive)
- GI50 [52]: 43.7 µM (inactive)
- GI50 [53]: 17.5 µM (inactive)
- GI50 [54]: 98.4 µM (inactive)
- GI50 [55]: 11.3 µM (inactive)
- GI50 [56]: 44 µM (inactive)
- GI50 [57]: > 70.3 µM (inactive)

SMILES: O=C(CCn1[nH]c(=O)c(Cl)c(Cl)c1=O)NO
- GI50 [1]: > 100 µM (inactive)
- GI50 [2]: > 100 µM (inactive)
- GI50 [3]: > 100 µM (inactive)
- GI50 [4]: > 100 µM (inactive)
- GI50 [5]: > 100 µM (inactive)
- GI50 [6]: > 100 µM (inactive)
- GI50 [7]: > 100 µM (inactive)
- GI50 [8]: > 100 µM (inactive)
- GI50 [9]: > 100 µM (inactive)
- GI50 [10]: > 100 µM (inactive)
- GI50 [11]: > 100 µM (inactive)
- GI50 [12]: > 100 µM (inactive)
- GI50 [14]: > 100 µM
- GI50 [15]: > 100 µM (inactive)
- GI50 [16]: > 100 µM (inactive)
- GI50 [17]: > 100 µM (inactive)
- GI50 [19]: > 100 µM (inactive)
- GI50 [20]: > 100 µM (inactive)
- GI50 [21]: > 100 µM (inactive)
- GI50 [22]: > 100 µM (inactive)
- GI50 [23]: > 100 µM (inactive)
- GI50 [24]: > 100 µM (inactive)
- GI50 [25]: > 100 µM (inactive)
- GI50 [26]: > 100 µM (inactive)
- GI50 [58]: > 100 µM (inactive)
- GI50 [27]: > 100 µM (inactive)
- GI50 [28]: > 100 µM (inactive)
- GI50 [29]: > 100 µM (inactive)
- GI50 [30]: > 100 µM (inactive)
- GI50 [31]: > 100 µM (inactive)
- GI50 [32]: > 100 µM (inactive)
- GI50 [33]: > 100 µM (inactive)
- GI50 [34]: > 100 µM (inactive)
- GI50 [35]: > 100 µM (inactive)
- GI50 [36]: > 100 µM (inactive)
- GI50 [37]: > 100 µM (inactive)
- GI50 [38]: > 100 µM (inactive)
- GI50 [39]: > 100 µM (inactive)
- GI50 [40]: > 100 µM (inactive)
- GI50 [41]: > 100 µM (inactive)
- GI50 [42]: > 100 µM (inactive)
- GI50 [43]: > 100 µM (inactive)
- GI50 [44]: > 100 µM (inactive)
- GI50 [45]: > 100 µM (inactive)
- GI50 [46]: > 100 µM (inactive)
- GI50 [47]: > 100 µM (inactive)
- GI50 [48]: > 100 µM (inactive)
- GI50 [51]: > 100 µM (inactive)
- GI50 [52]: > 100 µM (inactive)
- GI50 [53]: > 100 µM (inactive)
- GI50 [54]: > 100 µM (inactive)
- GI50 [55]: > 100 µM (inactive)
- GI50 [56]: > 100 µM (inactive)
- GI50 [57]: > 100 µM (inactive)

SMILES: CCOC(=O)CNC(=O)NC12CC3CC(CC(C3)C1)C2
- GI50 [2]: 147 µM (inactive)
- GI50 [3]: 229 µM (inactive)
- GI50 [5]: 169 µM (inactive)
- GI50 [6]: 182 µM (inactive)
- GI50 [7]: 137 µM (inactive)
- GI50 [8]: 65.8 µM (inactive)
- GI50 [9]: 179 µM (inactive)
- GI50 [10]: 223 µM (inactive)
- GI50 [11]: 191 µM (inactive)
- GI50 [12]: 142 µM (inactive)
- GI50 [13]: 156 µM (inactive)
- GI50 [14]: 229 µM
- GI50 [15]: 177 µM (inactive)
- GI50 [16]: 161 µM (inactive)
- GI50 [17]: 185 µM (inactive)
- GI50 [18]: 22.1 µM (inactive)
- GI50 [19]: 366 µM (inactive)
- GI50 [20]: 240 µM (inactive)
- GI50 [21]: 226 µM (inactive)
- GI50 [22]: 237 µM (inactive)
- GI50 [23]: 150 µM (inactive)
- GI50 [24]: 237 µM (inactive)
- GI50 [58]: 111 µM (inactive)
- GI50 [59]: 115 µM (inactive)
- GI50 [27]: 180 µM (inactive)
- GI50 [28]: 133 µM (inactive)
- GI50 [29]: 203 µM (inactive)
- GI50 [30]: 182 µM (inactive)
- GI50 [31]: 136 µM (inactive)
- GI50 [32]: 142 µM (inactive)
- GI50 [60]: 305 µM (inactive)
- GI50 [33]: 153 µM (inactive)
- GI50 [34]: 294 µM (inactive)
- GI50 [35]: 432 µM (inactive)
- GI50 [36]: 490 µM (inactive)
- GI50 [37]: 274 µM (inactive)
- GI50 [38]: 80.9 µM (inactive)
- GI50 [39]: 284 µM (inactive)
- GI50 [40]: 322 µM (inactive)
- GI50 [41]: 203 µM (inactive)
- GI50 [42]: 179 µM (inactive)
- GI50 [43]: 141 µM (inactive)
- GI50 [44]: 131 µM (inactive)
- GI50 [45]: > 418 µM (inactive)
- GI50 [46]: 219 µM (inactive)
- GI50 [47]: 270 µM (inactive)
- GI50 [48]: 110 µM (inactive)
- GI50 [49]: 221 µM (inactive)
- GI50 [51]: 247 µM (inactive)
- GI50 [53]: 269 µM (inactive)
- GI50 [54]: 176 µM (inactive)
- GI50 [55]: 125 µM (inactive)
- GI50 [56]: 171 µM (inactive)
- GI50 [57]: 22.1 µM (inactive)
